ChEMBL document CHEMBL1811903, “Protective role of 14-deoxy-11,12-didehydroandrographolide, a noncytotoxic analogue of andrographolide, in allergic airway inflammation” (J Nat Prod, 2011)
The source made the active and inactive calls. The rule behind the calls is not given here.

What was measured:
Mus musculus [1] = experiment: Antiinflammatory activity in ovalbumin-sensitized BALB/c mouse asthma model assessed as reduction in mucus production in lung at 1 mg/kg, ip administered 2 hrs before and 10 hrs after ovalbumin challenge measured after 24 hrs using PAS staining by histologic analysis; type: functional, organism-based; set-up: dose 1 mg/kg
Mus musculus [2] = experiment: Antiinflammatory activity in ovalbumin-sensitized BALB/c mouse asthma model lung assessed as suppression in Muc5ac mRNA level at 1 mg/kg, ip administered 2 hrs before and 10 hrs after ovalbumin challenge measured after 24 hrs by RT-PCR analysis; type: functional, organism-based; set-up: dose 1 mg/kg
RBL-2H3 [3] = experiment: Cytotoxicity against rat RBL2H3 cells assessed as reduction in cell viability at 3 to 120 uM after 24 to 48 hrs by MTS assay; type: cell-based; details: rbl-2h3, 120 µM
[4] = Cytotoxicity against human BEAS2B cells assessed as reduction in cell viability at 3 to 120 uM after 24 to 48 hrs by MTS assay; type: cell-based; details: beas-2b
Mus musculus [5] = experiment: Toxicity in BALB/c mouse assessed as reduction in hemoglobin concentration at 1 mg/kg, ip; type: organism-based; set-up: dose 1 mg/kg, route intraperitoneal; details: in vivo
A549 = experiment: Cytotoxicity against human A549 cells assessed as reduction in cell viability at 3 to 120 uM after 24 to 48 hrs by MTS assay; type: cell-based; details: a549, 120 µM
[6] = target: Transcription factor p65 (Homo sapiens) (UniProt Q04206); experiment: Inhibition of NF-kappaB p65 subunit in TNFalpha-stimulated human A549 cells assessed as reduction in DNA binding activity at 30 uM after 24 hrs by ELISA; type: cell-based
Mus musculus [7] = experiment: Antiinflammatory activity in ovalbumin-sensitized BALB/c mouse asthma model assessed as reduction in IgG2a level in serum at 0.1 to 1 mg/kg, ip administered 2 hrs before and 10 hrs after ovalbumin challenge measured after 24 hrs by ELISA; type: functional, organism-based
Mus musculus [8] = experiment: Antiinflammatory activity in ovalbumin-sensitized ip dosed BALB/c mouse asthma model assessed as reduction in eotaxin level in bronchoalveolar lavage fluid administered 2 hrs before and 10 hrs after ovalbumin challenge measured after 24 hrs by ELISA; type: functional, organism-based; details: Lung
Mus musculus [9] = experiment: Toxicity in BALB/c mouse assessed as reduction in white blood cell count at 1 mg/kg, ip; type: organism-based; set-up: dose 1 mg/kg, route intraperitoneal; details: in vivo
Mus musculus [10] = experiment: Antiinflammatory activity in ovalbumin-sensitized BALB/c mouse asthma model lung assessed as suppression in VCAM-1 mRNA level at 1 mg/kg, ip administered 2 hrs before and 10 hrs after ovalbumin challenge measured after 24 hrs by RT-PCR analysis; type: functional, organism-based; set-up: dose 1 mg/kg
Mus musculus [11] = experiment: Antiinflammatory activity in ovalbumin-sensitized BALB/c mouse asthma model lung assessed as suppression in […] mRNA level at 1 mg/kg, ip administered 2 hrs before and 10 hrs after ovalbumin challenge measured after 24 hrs by RT-PCR analysis; type: functional, organism-based; set-up: dose 1 mg/kg
Mus musculus [12] = experiment: Antiinflammatory activity in ovalbumin-sensitized BALB/c mouse asthma model lung assessed as suppression in AMCase mRNA level at 1 mg/kg, ip administered 2 hrs before and 10 hrs after ovalbumin challenge measured after 24 hrs by RT-PCR analysis; type: functional, organism-based; set-up: dose 1 mg/kg
Mus musculus [13] = experiment: Toxicity in BALB/c mouse assessed as reduction in hematocrit at 1 mg/kg, ip; type: organism-based; set-up: dose 1 mg/kg, route intraperitoneal; details: in vivo
Mus musculus [14] = experiment: Antiinflammatory activity in ovalbumin-sensitized BALB/c mouse asthma model assessed as reduction in total IgE level in serum at 0.1 to 1 mg/kg, ip administered 2 hrs before and 10 hrs after ovalbumin challenge measured after 24 hrs by ELISA; type: functional, organism-based
Mus musculus [15] = experiment: Antiinflammatory activity in ip dosed BALB/c mouse asthma model assessed as reduction in ovalbumin-induced eosinophil counts in bronchoalveolar lavage fluid administered 2 hrs before and 10 hrs after ovalbumin challenge measured after 24 hrs by cell counting; type: functional, organism-based; details: Lung
Mus musculus [16] = experiment: Antiinflammatory activity in ovalbumin-sensitized ip dosed BALB/c mouse asthma model assessed as reduction in IL-5 level in bronchoalveolar lavage fluid administered 2 hrs before and 10 hrs after ovalbumin challenge measured after 24 hrs by ELISA; type: functional, organism-based; details: Lung
Mus musculus [17] = experiment: Antiinflammatory activity in ovalbumin-sensitized BALB/c mouse asthma model lung assessed as suppression in Ym-1 mRNA level at 1 mg/kg, ip administered 2 hrs before and 10 hrs after ovalbumin challenge measured after 24 hrs by RT-PCR analysis; type: functional, organism-based; set-up: dose 1 mg/kg
Mus musculus [18] = experiment: Antiinflammatory activity in ovalbumin-sensitized BALB/c mouse asthma model lung assessed as reduction in NF-kappaB DNA binding activity at 1 mg/kg, ip administered 2 hrs before and 10 hrs after ovalbumin challenge measured after 24 hrs by immunoblotting; type: functional, organism-based; set-up: dose 1 mg/kg
Mus musculus [19] = experiment: Inhibition of ovalbumin-induced mast cell degranulation in BALB/c mouse asthma model at 1 mg/kg, ip administered 2 hrs before and 10 hrs after ovalbumin challenge measured after 24 hrs using toluidine blue staining by cell counting; type: functional, organism-based; set-up: dose 1 mg/kg
Mus musculus [20] = experiment: Antiinflammatory activity in BALB/c mouse asthma model assessed as reduction in ovalbumin-induced lymphocyte counts in bronchoalveolar lavage fluid at 1 mg/kg, ip administered 2 hrs before and 10 hrs after ovalbumin challenge measured after 24 hrs by cell counting; type: functional, organism-based; set-up: dose 1 mg/kg; details: Lung
Mus musculus [21] = experiment: Antiinflammatory activity in ovalbumin-sensitized BALB/c mouse asthma model lung assessed as suppression in MCP-1 mRNA level at 1 mg/kg, ip administered 2 hrs before and 10 hrs after ovalbumin challenge measured after 24 hrs by RT-PCR analysis; type: functional, organism-based; set-up: dose 1 mg/kg
Mus musculus [22] = experiment: Antiinflammatory activity in ovalbumin-sensitized BALB/c mouse asthma model assessed as reduction in methacholine-induced distensibility of the lung at 1 mg/kg, ip administered 2 hrs before and 10 hrs after ovalbumin challenge; type: functional, organism-based; set-up: dose 1 mg/kg
Mus musculus [23] = experiment: Antiinflammatory activity in ovalbumin-sensitized BALB/c mouse asthma model lung assessed as suppression in IL-33 mRNA level at 1 mg/kg, ip administered 2 hrs before and 10 hrs after ovalbumin challenge measured after 24 hrs by RT-PCR analysis; type: functional, organism-based; set-up: dose 1 mg/kg
Mus musculus [24] = experiment: Toxicity in BALB/c mouse assessed as reduction in red blood cell count at 1 mg/kg, ip; type: organism-based; set-up: dose 1 mg/kg, route intraperitoneal; details: in vivo
Mus musculus [25] = experiment: Antiinflammatory activity in ovalbumin-sensitized BALB/c mouse asthma model assessed as reduction in IgE level in serum at 0.1 to 1 mg/kg, ip administered 2 hrs before and 10 hrs after ovalbumin challenge measured after 24 hrs by ELISA; type: functional, organism-based
Mus musculus [26] = experiment: Antiinflammatory activity in ovalbumin-sensitized ip dosed BALB/c mouse asthma model assessed as reduction in IL-4 level in bronchoalveolar lavage fluid administered 2 hrs before and 10 hrs after ovalbumin challenge measured after 24 hrs by ELISA; type: functional, organism-based; details: Lung
Mus musculus [27] = experiment: Antiinflammatory activity in ovalbumin-sensitized ip dosed BALB/c mouse asthma model assessed as reduction in IL-13 level in bronchoalveolar lavage fluid administered 2 hrs before and 10 hrs after ovalbumin challenge measured after 24 hrs by ELISA; type: functional, organism-based; details: Lung
Mus musculus [28] = experiment: Antiinflammatory activity in ovalbumin-sensitized BALB/c mouse asthma model assessed as reduction in IgG1 level in serum at 0.1 to 1 mg/kg, ip administered 2 hrs before and 10 hrs after ovalbumin challenge measured after 24 hrs by ELISA; type: functional, organism-based
RBL-2H3 [29] = experiment: Inhibition of IgE-mediated rat RBL2H3 cell degranulation assessed as inhibition of beta-hexosaminidase release; type: functional, cell-based
Mus musculus [30] = experiment: Antiinflammatory activity in ovalbumin-sensitized BALB/c mouse asthma model lung assessed as suppression in COX-2 mRNA level at 1 mg/kg, ip administered 2 hrs before and 10 hrs after ovalbumin challenge measured after 24 hrs by RT-PCR analysis; type: functional, organism-based; set-up: dose 1 mg/kg
Mus musculus [31] = experiment: Antiinflammatory activity in ovalbumin-sensitized BALB/c mouse asthma model assessed as reduction in methacholine-induced maximum total lung resistance at 1 mg/kg, ip administered 2 hrs before and 10 hrs after ovalbumin challenge; type: functional, organism-based; set-up: dose 1 mg/kg
Mus musculus [32] = experiment: Antiinflammatory activity in ovalbumin-sensitized BALB/c mouse asthma model lung assessed as suppression in IL-17 mRNA level at 1 mg/kg, ip administered 2 hrs before and 10 hrs after ovalbumin challenge measured after 24 hrs by RT-PCR analysis; type: functional, organism-based; set-up: dose 1 mg/kg
Mus musculus [33] = experiment: Antiinflammatory activity in ip dosed BALB/c mouse asthma model assessed as reduction in ovalbumin-induced total cell counts in bronchoalveolar lavage fluid administered 2 hrs before and 10 hrs after ovalbumin challenge measured after 24 hrs by cell counting; type: functional, organism-based; details: Lung
Mus musculus [34] = experiment: Antiinflammatory activity in ovalbumin-sensitized BALB/c mouse asthma model lung assessed as suppression in E-selectin mRNA level at 1 mg/kg, ip administered 2 hrs before and 10 hrs after ovalbumin challenge measured after 24 hrs by RT-PCR analysis; type: functional, organism-based; set-up: dose 1 mg/kg
Mus musculus [35] = experiment: Antiinflammatory activity in BALB/c mouse asthma model assessed as reduction in ovalbumin-induced macrophage counts in bronchoalveolar lavage fluid at 1 mg/kg, ip administered 2 hrs before and 10 hrs after ovalbumin challenge measured after 24 hrs by cell counting; type: functional, organism-based; set-up: dose 1 mg/kg; details: Lung
[36] = target: Transcription factor p65 (Homo sapiens) (UniProt Q04206); experiment: Inhibition of NF-kappaB p65 subunit translocation in TNFalpha-stimulated human A549 cells assessed as reduction in p65 level in nuclear extract at 30 uM after 24 hrs by immunoblotting; type: cell-based
Mus musculus [37] = experiment: Antiinflammatory activity in ovalbumin-sensitized BALB/c mouse asthma model lung assessed as Inhibition of NF-kappaB p65 subunit nuclear translocation at 1 mg/kg, ip administered 2 hrs before and 10 hrs after ovalbumin challenge measured after 24 hrs by immunoblotting; type: functional, organism-based; set-up: dose 1 mg/kg
Mus musculus [38] = experiment: Antiinflammatory activity in ovalbumin-sensitized BALB/c mouse asthma model assessed as reduction in goblet cell hyperplasia at 1 mg/kg, ip administered 2 hrs before and 10 hrs after ovalbumin challenge measured after 24 hrs using hematoxylin and eosin staining by histologic analysis; type: functional, organism-based; set-up: dose 1 mg/kg
Mus musculus [39] = experiment: Antiinflammatory activity in ovalbumin-sensitized BALB/c mouse asthma model lung assessed as suppression in Ym-2 mRNA level at 1 mg/kg, ip administered 2 hrs before and 10 hrs after ovalbumin challenge measured after 24 hrs by RT-PCR analysis; type: functional, organism-based; set-up: dose 1 mg/kg

Chain of Transcription factor p65 (Homo sapiens) (Q04206 whole entry): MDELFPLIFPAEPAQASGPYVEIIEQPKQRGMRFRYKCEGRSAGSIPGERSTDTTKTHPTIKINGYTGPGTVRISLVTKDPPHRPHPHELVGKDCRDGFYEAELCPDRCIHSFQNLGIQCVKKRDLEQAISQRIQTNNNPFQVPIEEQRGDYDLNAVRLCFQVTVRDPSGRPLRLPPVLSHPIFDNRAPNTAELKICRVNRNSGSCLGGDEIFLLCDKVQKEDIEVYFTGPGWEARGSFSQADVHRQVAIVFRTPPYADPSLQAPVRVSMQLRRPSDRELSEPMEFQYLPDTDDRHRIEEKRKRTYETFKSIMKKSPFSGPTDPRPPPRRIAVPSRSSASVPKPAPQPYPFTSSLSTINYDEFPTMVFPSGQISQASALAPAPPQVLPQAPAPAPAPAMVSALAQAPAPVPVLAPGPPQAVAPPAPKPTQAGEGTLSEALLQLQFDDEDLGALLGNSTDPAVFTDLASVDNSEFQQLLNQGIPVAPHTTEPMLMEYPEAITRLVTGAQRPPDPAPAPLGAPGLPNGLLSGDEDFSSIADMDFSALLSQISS

C=C1CC[C@@H]2[C@](C)(CO)[C@H](O)CC[C@@]2(C)[C@@H]1/C=C/C1=CCOC1=O
Activity (Mus musculus [1]): Active
Activity (Mus musculus [2]): Active
Activity (RBL-2H3 [3]): Non-toxic
Activity [4]: Non-toxic
Activity (Mus musculus [5]): Non-toxic
Activity (A549): Non-toxic
inhibition [6]: Active
Activity (Mus musculus [7]): inactive
Activity (Mus musculus [8]): Dose-dependent effect
Activity (Mus musculus [9]): Non-toxic
Activity (Mus musculus [10]): Active
Activity (Mus musculus [11]): Active
Activity (Mus musculus [12]): Active
Activity (Mus musculus [13]): Non-toxic
Activity (Mus musculus [14]): Active
Activity (Mus musculus [15]): Dose-dependent effect
Activity (Mus musculus [16]): Dose-dependent effect
Activity (Mus musculus [17]): Active
Activity (Mus musculus [18]): Active
inhibition (Mus musculus [19]): inactive
Activity (Mus musculus [20]): Active
Activity (Mus musculus [21]): Active
Activity (Mus musculus [22]): Active
Activity (Mus musculus [23]): Active
Activity (Mus musculus [24]): Non-toxic
Activity (Mus musculus [25]): Active
Activity (Mus musculus [26]): Dose-dependent effect
Activity (Mus musculus [27]): Dose-dependent effect
Activity (Mus musculus [28]): Active
inhibition (RBL-2H3 [29]): inactive
Activity (Mus musculus [30]): Active
Activity (Mus musculus [31]): Active
Activity (Mus musculus [32]): Active
Activity (Mus musculus [33]): Dose-dependent effect
Activity (Mus musculus [34]): Active
Activity (Mus musculus [35]): Active
inhibition [36]: Active
inhibition (Mus musculus [37]): Active
Activity (Mus musculus [38]): Active
Activity (Mus musculus [39]): Active
